Assays:
bone marrow derived MDSC = assay: In vitro MDSC generation from bone marrow with H2O2 or antioxidants; format: cell-based, mouse; conditions: added Day 0 and Day 3; 0.001 mM H2O2, 20 μM MitoTEMPO, 20 μM BHA
Description: To further study how ROS regulates MDSC differentiation, low dose of H2O2 and two commonly used antioxidants, MitoTEMPO and Butylated hydroxyanisole (BHA), were separately added to the culture media during MDSC in vitro generation. At basal condition, KO marrow generated less M-MDSC cells while differentiated more into Ly6C−CD11c+I-A+ mature dendritic cells compared to WT ones. […] The higher level of ROS in CaMKK2 KO MDSCs limited M-MDSC accumulation by facilitating the myeloid cell differentiation.
Bone marrow cells were prepared as described before. Cells after RBC lysis were seeded to 6-well plates (Coring, NY, USA) at 1×10^6 per well in 5 ml DMEM (Gibco, MA, USA) supplied with 10% FBS, 2 mM L-glutamine, 1.5 g/L sodium bicarbonate, 10 mM HEPES, 1.0 mM sodium pyruvate (all from Gibco, MA, USA), 10% fetal bovine serum (Hyclone, MA, USA), 40 nM recombinant mouse GM-CSF and 40 nM recombinant mouse IL-6 (Biolegend, CA, USA), and with or without 50% E.G7 supernatant. The supernatant was half-changed on Day 3. The floating cells were collected on Day 5 and enriched by anti-mouse Gr-1 Microbeads (Miltenyi, Bergisch Gladbach, Germany). The cells with the purity >90% were used. In some experiments as indicated, the cells were stained with APC anti-mouse Gr-1, PE anti-mouse/human CD11b (Biolegend, CA, USA). Double positive cells were sorted with BD FACS Aria II cell sorter (BD, NJ, USA).
For MDSC and BMDC, only floating cells were collected. 1×10^6 cells were spun down in BD Falcon round-bottom polystyrene tubes (BD, NY, USA). The cell pellet was incubated with 50 μl PBS with 2% FBS with FITC anti-mouse CD11c, PE anti-mouse/human CD11b, PE-Cy7 anti-mouse Ly6G, APC anti-mouse F4/80, APC-Cy7 anti-mouse I-A (all from BioLegend, CA, USA), PerCP Cy5.5 anti-mouse Ly6C, and Fixable Viability Dye eFluor® 450 (eBioscience, CA, USA) at 4° C. for 15 min. Cells were washed once with 2 ml PBS with 2% FBS and fixed with 200 μl 1.5% PFA in 4° C. till analysis.

E0771 cells [1] = assay: Orthotopic E0771 mammary tumor growth; format: in vivo, mouse; conditions: orthotopic graft in syngeneic wildtype mice; STO-609 IP 3-times/week
Method: (§1) E0771, 4T1 and Met1 grafts: 200,000 of the indicated cells were grafted orthotopically into the mammary fat pad of mice. 4T1 and Met1 cells were grafted in 50% matrigel. Resulting tumors were assessed by direct caliper measurement. To get sizable tumors in Camkk2−/− mice for IHC and flow cytometry studies, a higher number of E0771 (4×10^5) where grafted. This information has been reported in the corresponding figures.
(§2) These drugs were administered intraperitoneally daily. […] GSK treatment was initiated at post-day 2.

E.G7 tumor = assay: Flow cytometry of tumors and spleens of E.G7 tumor bearing mice; format: in vivo, mouse; conditions: vs DMSO
Method: The removed tumors were further minced with a surgical scalpel. The tissue were added to 5 ml HBSS w/Ca^2+ and Mg^2+ (ThermoFisher Scientific, MA, USA) supplied with collagenase 2 mg/ml and DNase 0.1 mg/ml (Roche, Basel, Switzerland) in gentleMACS C tubes and dissecting with gentleMACS dissociator (Miltenyi, Bergisch Gladbach, Germany). The samples were incubated in 37° C. for 15 min and passed through the 70 μm cell strainers (Coring, NY, USA). Cells were washed twice in PBS w/2% FBS before staining.
For myeloid cells staining, 5×10^6 cells were incubated with FITC anti-mouse CD11c, PE anti-mouse/human CD11b, PE-Cy7 anti-mouse Ly6G, APC anti-mouse F4/80 (all from BioLegend, CA, USA), PerCpCy5.5 anti-mouse Ly6C, Fixable Viability Dye eFluor® 450 (eBioscience, CA, USA) at 4° C. for 15 min in dark and washed with PBS w/2% FBS. The stained cells were analyzed using a BD FACSCanto flow cytometer (BD, NJ, USA). Data is analyzed using FlowJo (TreeStar, OR, USA).

E0771 cells [2] = assay: E0771 tumor growth in CD8+ T-cell depleted Camkk2-/- mice; format: in vivo, mouse; conditions: anti-CD8 treated Camkk2-/- mice, STO-609 vs vehicle
Method: as §1, §2
To deplete CD8+ cells, mice were injected intra-peritoneally with anti-mouse CD8 monoclonal antibody or its IgG control isotype (BioXCell, NH, USA) each at 200 μl at the concentration of 1 mg/ml 4 days and 1 day before tumor inoculation, and every 3 days after tumor cell injection. The effect of CD8 depletion was monitored by flow cytometry using 50 μl peripheral blood staining with APC anti-mouse CD8, APC-Cy7 anti-mouse CD45.2 (BioLegend) at the same time.

Met1 cells = assay: Orthotopic Met1 mammary tumor growth; format: in vivo, mouse; conditions: syngeneic wildtype mice; IP 100 moles/Kg body weight 3-times/week
Method: as §1
(§3) […] […] GSK treatment was initiated at post-day 2.

E0771 tumors = assay: Flow cytometry of tumor-associated myeloid and lymphoid cells in E0771 tumors; format: in vivo, mouse; conditions: STO-609 vs vehicle treated mice
Method: Tumors were removed from mice and minced with a surgical scalpel. Minced tissues were added to 5 ml HBSS containing Ca^2+ and Mg^2+ (ThermoFisher Scientific, MA, USA), and supplied with collagenase 2 mg/ml and DNase 0.1 mg/ml (Roche, Basel, Switzerland). Subsequently, they were transferred in gentleMACS C tubes, dissected with gentleMACS dissociator (Miltenyi, Bergisch Gladbach, Germany) and incubated for […] at 37° C. At the end of this incubation, tumors were dissected again with gentleMACS dissociator, and cell suspension passed through 70 μm-cell strainers (Coring, NY, USA), washed twice in PBS w/2% FBS and used for FACS analysis.
Staining of tumor-infiltrating E0771 tumors: 5×10^6 cells suspension from dissected tumors were surface stained with APC Cy7-CD3, PE-CD8, PE Cy7-CD4, APC PD-1 (all from BioLegend, CA, USA). Cells were incubated for 15 min at 4° C., washed with PBS-2% FCS. PerCP/Cy5.5 PD-1 antibody (BioLegend, CA, USA) was used for intracellular staining on fixed and permeabilized cells, according with manufacture's protocol (BioLegend). For myeloid cells staining, cells were incubated with PE anti-mouse/human CD11b, PE-Cy7 anti-mouse Ly6G, APC anti-mouse F4/80 (all from BioLegend), PerCpCy5.5 anti-mouse Ly6C, APC Cy7-I-A and Fixable Viability Dye eFluor 450 (eBioscience, CA, USA) at 4° C. for 15 min in dark. Subsequently, cells were washed with PBS w/2% FBS and analyzed by FACS. Bone marrow-derived macrophages (1×10^6) were stained with PE anti-mouse/human CD11b, APC anti-mouse F4/80 (BioLegend), APC Cy7-I-A and Fixable Viability Dye eFluor 450 (eBioscience). The stained cells were analyzed using a BD FACSCanto flow cytometer (BD, NJ, USA). Data is analyzed using FlowJo (TreeStar, OR, USA).

E.G7 cells = assay: E.G7 lymphoma flank tumor growth under STO-609 treatment; format: in vivo, mouse; conditions: C57BL/6 mice, peritoneal injection every 2-3 days, vs DMSO; p<0.001
Method: Flank Tumor Model 1×10^5 E.G7 cells were suspended in 100 μl PBS and implanted subcutaneously to the right side flank of the mice. Tumors were monitored using bioluminescence imaging each week. Tumor sizes were measured with calibrator every 3-4 days and calculated as: Length×Width×Width/2. In some experiments 5×10^5 cells were used as indicated. Mice were sacrificed when tumor reached 2 cm^3. ELISpot Analysis
STO-609 was purchased from TORIS Bioscience (Bristol, UK). The C57BL/6 mice were purchased from the Jackson Laboratory (CA, USA). The mice were inoculated with 5×10^5 E.G7 cells to the right flank subcutaneously on day 0. On day 7, the tumor growth was measured using bioluminescent imaging. All the mice with visible tumor under luciferin detection were randomized into STO-609 treatment group or DMSO control group. […] The tumor size was monitored using a calibrator every 3-4 days. The experiment was terminated when the tumor reached 2 cm^3.

4T1 cells = assay: Orthotopic 4T1 mammary tumor growth; format: in vivo, mouse; conditions: syngeneic wildtype mice; IP 3-times/week
Method: as §1, §3

`COc1ccc(O)c(C(C)(C)C)c1` [BHA, Butylated hydroxyanisole] was tested, and the “M-MDSC number / accumulation” value (bone marrow derived MDSC) was “same phenomenon was also observed” and the “differentiation towards Ly6C-IA+CD11c+ dendritic cells” value (bone marrow derived MDSC) was “same phenomenon was also observed”.

For `CCCc1ccnc2[nH]cc(-c3ccc(C(=O)N[C@@H](CO)c4ccccc4)cc3)c12` [GSKi], the “E0771 mammary tumor growth (tumor volume)” value (E0771 cells [1]) was “inhibited”.

With `OO` [H2O2] the “M-MDSC number / accumulation” value (bone marrow derived MDSC) was “significantly decreased” and the “differentiation towards Ly6C-IA+CD11c+ dendritic cells” value (bone marrow derived MDSC) was “increased both the count and percentage”.

In the case of `CC1(C)CC(NC(=O)C[P+](c2ccccc2)(c2ccccc2)c2ccccc2)CC(C)(C)N1[O]` [MitoTEMPO], the “M-MDSC number / accumulation” value (bone marrow derived MDSC) is reported as “significantly induced M-MDSC accumulation” and the “differentiation towards Ly6C-IA+CD11c+ dendritic cells” value (bone marrow derived MDSC) is reported as “decreased the differentiation”.

For `O=C(O)c1ccc2c3c1cccc3c(=O)n1c3ccccc3nc21` [STO-609], the “percentage of CD3 in the tumors” value (E.G7 tumor; E.G7 tumors, p<0.05) was “significantly higher”, the “percentage of M-MDSC in the spleens” value (E.G7 tumor; Ly6C+ in CD11b+ population, p<0.001) was “much lower” and the “E0771 tumor growth in CD8+ T-cell depleted CamKK2-/- mice” value (E0771 cells [2]) was “without effect”. The “Met1 mammary tumor growth (tumor volume)” value (Met1 cells) was “inhibited”, the “CD4+ T cells in E0771 tumors” value (E0771 tumors) was “promoting accumulation” and the “CD8+ T cells in E0771 tumors” value (E0771 tumors) was “promoting accumulation”. For the same molecule, the “MHCII I-A high macrophages in E0771 tumors” value (E0771 tumors) was “promoting accumulation”, the “NK-T cells in E0771 tumors” value (E0771 tumors) was “promoting accumulation” and the “E0771 mammary tumor growth (tumor volume)” value (E0771 cells [1]) was “antitumor activity”. The “lymphoma growth (E.G7 tumor size)” value (E.G7 cells) was “significantly suppressed” and the “4T1 mammary tumor growth (tumor volume)” value (4T1 cells) was “inhibited”.

Source: patent US12158399B2, “CaMKK2 inhibitor compositions and methods of using the same” (Duke University, priority 2016, dated 2024)
